# According to patent publication US10253002B2, “Compounds and methods of treating infections” (Neoculi Pty Ltd., priority 2013, dated 2019):
# Where two headings read alike, the source gives them in different places.
# Assays:
# Streptococcus pneumoniae = test: Broth microdilution MIC (CLSI) in 4% LHB-CAMHB, Example 1; assay type: cell-based; conditions: Streptococcus pneumoniae, read-out: MIC
# Method: The powder was dissolved in 10 mL DMSO and 1 mL volumes were aliquoted into eppendorf tubes and stored at -80° C. […] Serial dilutions were prepared in 96 well plates were set up in a safety cabinet according to methods standard in the art. Briefly: 90 μL of the working antibiotic solution was added to each well in Column 12 of the plate, and mixed well, before 90 μL was transferred to column 11. The solutions were mixed again, and then transferred to the next column as before, continuing the dilutions through to column 3. Mixing the well requires the pick up and expulsion of 90 μL in each well 3-4 times before picking up and transferring the 90 μL to the next well. […] The bacterial solution was placed into a sterile trough and 10 μL of bacterial solution added into wells 2 through to 12 on each required row (dilution of 1:10, with final concentration of bacteria in wells=5×10^5 CFU/mL). The tray was sealed and incubated at 37° C. for 18-24 h. The purity of bacterial suspension was confirmed by streaking out 50 μL of the 1:20 dilution onto a SBA plate, which was incubated for 37° C. for 18 h and examined. Viable counts were carried out to ensure that the correct concentration of bacteria and been added to the wells. […] The following day the number of colonies on the plates was counted and the average count in 100 μL obtained. The study was multiplied by 10 to obtain a viable bacterial count per mL. Minimum inhibitory concentrations (μg/mL) were determined using the broth microdilution method recommended by the Clinical and Laboratory Standards Institute (CLSI) (Methods for Dilution Antimicrobial Susceptibility Tests for Bacteria That Grow Aerobically; Approved Standard-Seventh Edition. CLSI M7-A7, 2006; Performance Standards for Antimicrobial Disk and Dilution Susceptibility Tests for Bacteria Isolated from Animals; Approved Standard-Second Edition. CLSI […]-A2, 2002; Performance Standards for Antimicrobial Susceptibility Testing; CLSI M2-A9, 2006). […] Bacterial growth (turbidity) in the wells with antimicrobial was compared with the amount of growth (turbidity) in the growth-control well (containing no antimicrobial). All isolates were tested in duplicate, if there was a difference of greater than one two-fold dilution in the results, the test was repeated a third time. The purity of the isolates was closely monitored during testing by subculturing the prepared bacterial inoculum onto SBA. Control organisms (Enterococcus faecalis strain ATCC 29212, S. aureus strain ATCC 29213 and S. pneumoniae strain ATCC 49619) were used throughout the testing to monitor quality control. […] The MIC50, MIC90 and MIC range (minimum and maximum) were calculated for each of the bacterial groups.
# [1] = Solubility in DMSO and CAMHB, Example 4
# Text: Test antimicrobials were selected on the basis of solubility and antimicrobial activity from preliminary studies.
# S. aureus MK01 and KC01 = test: MIC, Example 8; assay type: cell-based; conditions: Staphylococcus aureus, MK01ANDKC01, S. aureus KC01
# Text: Two Staphylococcus aureus isolates were used in the following experiments; S. aureus MK01 a human skin strain, and S. aureus KC01 an equine skin strain. These isolates were identified by Gram stain and biochemical methods, including the Remel Staphaurex commercial kit. […] As this isolate has previously been speciated, it was not subjected to further testing, except for observation of pure, characteristic growth on blood agar.
# MRSA = test: Broth microdilution MIC, Example 7 (NCL812 and analogues); assay type: cell-based, Staphylococcus aureus; conditions: for MIC: Staphylococcus aureus, MRSA
# In short: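 Values are MICs in μg/ml from broth microdilution per CLSI, with growth scored against a drug-free well.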
smiles,measurement,setting,value
"N=C(N/N=C/c1ccc(Cl)cc1)N/N=C/c1ccc(Cl)cc1 [NCL812, 1,3-bis[(E)-(4-chlorophenyl)methyleneamino]guanidine]",MIC,"Streptococcus pneumoniae; Strep. pneumoniae 3, Test 2",2 µg/mL
same,MIC,"Streptococcus pneumoniae; Strep. pneumoniae 16, Test 1",0.5 µg/mL
same,MIC,"Streptococcus pneumoniae; Strep. pneumoniae 16, Test 2",1 µg/mL
same,Solubility CAMHB,[1]; cation-adjusted Mueller-Hinton II broth,Cloudy precipitates
same,Solubility DMSO,[1]; dimethyl sulfoxide,Good
same,MIC,S. aureus MK01 and KC01,2 µg/mL
same,MIC,"MRSA; MRSA 616, Phase I, 1st, read-out: MIC",8 µg/mL
same,MIC,"MRSA; MRSA 718, Phase I, 2nd, read-out: MIC",8 µg/mL
same,MIC,"MRSA; MRSA 747, Phase I, 1st, read-out: MIC",8 µg/mL
same,MIC,"MRSA; bioassay ranking, read-out: MRSA",3 µg/mL
same,"MIC (μg/ml) at 24 hours, MRSA 2","MRSA; isolate MRSA 2, 24 hours, 1st and 2nd replicate rows",2 µg/mL
